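Assay format: 96-well plates, 48-hour exposure. TGI: total growth inhibition.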

Among the test systems are MOLT-4 leukemia; SNB-75 CNS; DLD-1 colon; NCI-H23 lung; M19-MEL melanoma; DMS 114 small cell lung; XF 498 CNS; CCRF-CEM leukemia; HOP-18 NSCLC; BT-549 breast; MDA-MB-435.
Test in all cases: NCI-60 cell line screen, 48 h

For `C/C(CC(=O)Nc1ccc(Cl)cc1)=N\NC(N)=S`, the TGI in the assay with MOLT-4 leukemia, with SNB-75 CNS, in the assay with DLD-1 colon, in the assay with NCI-H23 lung, in the assay with M19-MEL melanoma and in the assay on DMS 114 small cell lung was greater than 100 µM in each case. For the same molecule, the TGI with XF 498 CNS and with CCRF-CEM leukemia was greater than 100 µM in each case.

As to `C[C@]12CCC3[C@@H](CC[C@@H]4c5nonc5CC[C@]34C)C1C/C(=N/O)C2=O` (stereo partly specified), the TGI in the assay on MOLT-4 leukemia was greater than 100 µM; with HOP-18 NSCLC, greater than 100 µM; in the assay on SNB-75 CNS, 2.98 µM; with NCI-H23 lung, greater than 100 µM; with M19-MEL melanoma it was greater than 100 µM; in the assay on DMS 114 small cell lung, greater than 100 µM. The TGI in the assay with XF 498 CNS was 40.4 µM; in the assay on CCRF-CEM leukemia, greater than 100 µM.

In the case of `CCOC(=O)NC(=O)c1cn(CCCCCCOC(=O)NCCCCCCNC(=O)OCCCCCCn2cc(C(=O)NC(=O)OCC)c(=O)[nH]c2=O)c(=O)[nH]c1=O`, the TGI in the assay with MOLT-4 leukemia, in the assay with HOP-18 NSCLC, in the assay on SNB-75 CNS, with DLD-1 colon, in the assay on M19-MEL melanoma and in the assay with DMS 114 small cell lung was greater than 100 µM each time. Further, the TGI in the assay with CCRF-CEM leukemia is greater than 100 µM.

On to `CN(C(=O)c1ccco1)C(=S)N1CCN(c2ccccc2)CC1`, for which the TGI in the assay on MOLT-4 leukemia, in the assay with HOP-18 NSCLC, in the assay on SNB-75 CNS, with DLD-1 colon, in the assay on NCI-H23 lung and with M19-MEL melanoma was greater than 100 µM throughout. Also, the TGI in the assay on DMS 114 small cell lung, in the assay on XF 498 CNS and in the assay with CCRF-CEM leukemia was greater than 100 µM in each case.

Turning to `O=C1CC(S(=O)(=O)O)C=C1Nc1cccc(Cl)c1` (stereo unspecified), the TGI with MOLT-4 leukemia, in the assay with HOP-18 NSCLC, with SNB-75 CNS, in the assay with DLD-1 colon, in the assay with NCI-H23 lung and in the assay with M19-MEL melanoma was greater than 100 µM in each case. Further, the TGI in the assay on XF 498 CNS and with CCRF-CEM leukemia was greater than 100 µM in each case.

On to `Cc1ccc(N2C(=O)C3C=CC(n4[nH]c(=O)n(Cc5ccccc5)c4=O)CC3C2=O)cc1` (stereo unspecified), for which the TGI with MOLT-4 leukemia, in the assay on HOP-18 NSCLC, in the assay on SNB-75 CNS, with DLD-1 colon, in the assay on NCI-H23 lung and in the assay with M19-MEL melanoma was greater than 100 µM throughout. Further, the TGI in the assay on DMS 114 small cell lung, with XF 498 CNS and with CCRF-CEM leukemia was greater than 100 µM throughout.

As for `O=CC1CCCc2ccccc21` (stereo unspecified), the TGI in the assay with MOLT-4 leukemia is greater than 100 µM; with HOP-18 NSCLC, greater than 100 µM; in the assay with SNB-75 CNS, greater than 100 µM; in the assay with DLD-1 colon it was greater than 63.8 µM; in the assay with NCI-H23 lung it was greater than 100 µM; in the assay with M19-MEL melanoma it was greater than 100 µM. Further, the results for the TGI in the assay on DMS 114 small cell lung, in the assay on XF 498 CNS and with CCRF-CEM leukemia were greater than 71.4 µM, greater than 100 µM and greater than 72 µM, respectively.

Regarding `COC(=O)c1cc(Cl)ccc1NC(=O)c1ccc([N+](=O)[O-])cc1`, the TGI was greater than 100 µM with MOLT-4 leukemia; 20.7 µM in the assay with SNB-75 CNS; greater than 100 µM with DLD-1 colon; 50.3 µM in the assay on NCI-H23 lung; greater than 100 µM in the assay with M19-MEL melanoma; greater than 100 µM with DMS 114 small cell lung. The TGI was determined as 35.9 µM in the assay on XF 498 CNS and 80.4 µM in the assay with CCRF-CEM leukemia.

In the case of `O=S1(=O)OCCOS(=O)(=O)C1Cc1ccccc1`, the TGI is greater than 100 µM in the assay on MOLT-4 leukemia; 50 µM with HOP-18 NSCLC; greater than 100 µM with SNB-75 CNS; greater than 100 µM in the assay with DLD-1 colon; greater than 100 µM with NCI-H23 lung; greater than 100 µM in the assay on M19-MEL melanoma. The TGI with DMS 114 small cell lung and in the assay on XF 498 CNS was greater than 100 µM throughout.

For the molecule `COC(=O)C1=C(c2cc(OC)c(OC)c(OC)c2)OC(c2ccc(OC)c(OC)c2)C1` (stereo unspecified), the TGI is 51.2 µM in the assay with MOLT-4 leukemia; greater than 100 µM in the assay on HOP-18 NSCLC; greater than 100 µM in the assay on SNB-75 CNS; greater than 100 µM with DLD-1 colon; greater than 100 µM with NCI-H23 lung; greater than 100 µM in the assay on M19-MEL melanoma. The TGI is 81.3 µM with DMS 114 small cell lung, greater than 100 µM in the assay on XF 498 CNS and greater than 100 µM in the assay on CCRF-CEM leukemia.

As for `N#CC(c1nc2ccccc2nc1Cl)S(=O)(=O)c1ccccc1` (stereo unspecified), the TGI in the assay with MOLT-4 leukemia, in the assay on SNB-75 CNS, with DLD-1 colon, in the assay with NCI-H23 lung, with M19-MEL melanoma and in the assay on DMS 114 small cell lung was greater than 100 µM in each case. Also, the TGI with XF 498 CNS and with CCRF-CEM leukemia was greater than 100 µM each time.

For `Cc1[nH]c2ccccc2c1C1Cc2ccccc2N1C(=O)/C=C/C(=O)O` (stereo unspecified), the TGI with MOLT-4 leukemia, in the assay with SNB-75 CNS, with DLD-1 colon, in the assay with NCI-H23 lung, with M19-MEL melanoma and with DMS 114 small cell lung was greater than 100 µM in each case. Moreover, the TGI in the assay with XF 498 CNS and with CCRF-CEM leukemia was greater than 100 µM in each case.

Consider `COc1c(Cl)cc(NC(=S)C#N)cc1Cl`, for which the TGI with MOLT-4 leukemia is greater than 100 µM; in the assay with BT-549 breast, 39.5 µM; in the assay with HOP-18 NSCLC, 60.1 µM; in the assay on SNB-75 CNS, 67.4 µM; in the assay with DLD-1 colon it was greater than 100 µM; with NCI-H23 lung it was 44.6 µM. For the same molecule, the TGI in the assay on MDA-MB-435 was 92.8 µM; in the assay with M19-MEL melanoma it was 50.2 µM; in the assay on DMS 114 small cell lung it was 36.3 µM; in the assay on CCRF-CEM leukemia, greater than 100 µM.

For the molecule `COc1ccc2ccccc2c1C1OC(=O)c2ccccc21` (stereo unspecified), the TGI in the assay on MOLT-4 leukemia, in the assay on HOP-18 NSCLC, in the assay on DLD-1 colon, in the assay on NCI-H23 lung, in the assay with M19-MEL melanoma and in the assay with DMS 114 small cell lung was greater than 100 µM in each case. The molecule also registered a TGI with CCRF-CEM leukemia greater than 100 µM.

With `COc1ccc(OC)c2c1C(=O)C1CC1(Br)C2=O` (stereo unspecified), the TGI in the assay with MOLT-4 leukemia, in the assay on DLD-1 colon, with NCI-H23 lung, in the assay with M19-MEL melanoma, in the assay with DMS 114 small cell lung and with XF 498 CNS was greater than 100 µM throughout. Also, the TGI in the assay with CCRF-CEM leukemia was greater than 100 µM.

For the molecule `CN(/N=C/c1cccc2cccnc12)c1ccccc1`, the TGI in the assay on MOLT-4 leukemia, in the assay on HOP-18 NSCLC, in the assay on SNB-75 CNS, in the assay on DLD-1 colon, in the assay with NCI-H23 lung and with M19-MEL melanoma was greater than 100 µM each time. Besides, the TGI with DMS 114 small cell lung, with XF 498 CNS and in the assay with CCRF-CEM leukemia was greater than 100 µM each time.

On to `CC(C)c1cccc2sc(NC(=O)C(=O)C(C#N)c3cccc4ccccc34)nc12` (stereo unspecified), for which the TGI in the assay with MOLT-4 leukemia was greater than 100 µM; in the assay with HOP-18 NSCLC, greater than 100 µM; in the assay with SNB-75 CNS it was 95.4 µM; in the assay on DLD-1 colon it was greater than 100 µM; with NCI-H23 lung it was greater than 100 µM; in the assay on M19-MEL melanoma, greater than 100 µM. Moreover, the TGI in the assay with DMS 114 small cell lung and in the assay on CCRF-CEM leukemia was greater than 100 µM in each case.

`O=CN/C=C/c1ccc(O)c(O)c1`: the TGI in the assay on MOLT-4 leukemia, with SNB-75 CNS, in the assay on DLD-1 colon, with NCI-H23 lung, in the assay on M19-MEL melanoma and in the assay with DMS 114 small cell lung was greater than 100 µM in each case. Besides, the TGI with XF 498 CNS and with CCRF-CEM leukemia was greater than 100 µM in each case.

Consider `Cc1ccc(Nc2nc(C)c(C(/C=C/c3ccc(/C=C/C(=N/NC(=O)C[n+]4ccccc4)c4sc(Nc5ccc(C)cc5[N+](=O)[O-])nc4C)cc3)=N\NC(=O)C[n+]3ccccc3)s2)c([N+](=O)[O-])c1`, for which the TGI with MOLT-4 leukemia was greater than 100 µM; in the assay on HOP-18 NSCLC, 68 µM; with SNB-75 CNS, greater than 100 µM; in the assay with DLD-1 colon, greater than 100 µM; with NCI-H23 lung it was greater than 100 µM; in the assay with M19-MEL melanoma it was greater than 100 µM. Also, the TGI in the assay with DMS 114 small cell lung and with CCRF-CEM leukemia was greater than 100 µM in each case.

As for `Cc1cc(Cl)ccc1NC(=O)CC/C(CC(=O)C(C)C)=N\NC(=O)C[n+]1ccccc1`, the TGI in the assay on MOLT-4 leukemia, with HOP-18 NSCLC, with SNB-75 CNS, in the assay with NCI-H23 lung, with DMS 114 small cell lung and in the assay on XF 498 CNS was greater than 100 µM each time. The molecule further registered a TGI with CCRF-CEM leukemia greater than 100 µM.

For the molecule `COC(=O)CCC(NC(=S)N/N=C/c1ccco1)C(=O)OC` (stereo unspecified), the TGI in the assay on HOP-18 NSCLC, in the assay with SNB-75 CNS, in the assay with DLD-1 colon, in the assay on NCI-H23 lung, in the assay on M19-MEL melanoma and in the assay with DMS 114 small cell lung was greater than 100 µM in each case. Also, the TGI in the assay with XF 498 CNS and in the assay on CCRF-CEM leukemia was greater than 100 µM in each case.

Turning to `COc1ccc(C2=NN(c3ccccc3)C[N+](c3ccc(OC)cc3)=N2)cc1`, the TGI was 90.7 µM in the assay on MOLT-4 leukemia; greater than 100 µM with DLD-1 colon; 93.1 µM in the assay on NCI-H23 lung; greater than 100 µM in the assay with M19-MEL melanoma; 64 µM in the assay with DMS 114 small cell lung; 39.1 µM with XF 498 CNS. Also, the TGI in the assay on CCRF-CEM leukemia was 83.4 µM.

As to `CN1c2ccccc2N(C)C23N(C)c4ccccc4N(C)C12N(C)c1ccccc1N3C` (stereo unspecified), the TGI in the assay with MOLT-4 leukemia, in the assay with SNB-75 CNS, with DLD-1 colon, in the assay on NCI-H23 lung, in the assay with M19-MEL melanoma and in the assay on DMS 114 small cell lung was greater than 100 µM throughout. Further, the TGI in the assay with XF 498 CNS and with CCRF-CEM leukemia was greater than 100 µM each time.

Values taken from PubChem BioAssay (NCI).
